Source: publication PMC6470840 (International Journal of Molecular Sciences, 2019)
“Also recorded” adds a separate entry of the source.

What was measured:
T2DM rats = system: T2DM rats; set-up: method as in PMID 24946264; settings: injected (intraperitoneal injection); cited from earlier work
Excerpt: DhHP-6 (Deuterohemin-βAla-His-Thr-Val-Glu-Lys) was designed based on the microperoxidase-11 (MP-11), generated through […]. […] When ...

T2DM mice [1] = assay: T2DM mouse model: pancreas islet histology (H&E); format: in vivo, C57BL/6J mice; settings: DhHP-6 60 mg/kg or metformin 250 mg/kg oral, four weeks
Description: (§1) At the end of the experiment, the liver and pancreas islets were immediately removed after the mice were sacrificed. The left lobe of the liver was stored at −80 °C and the right lobe of the liver was fixed in 4% paraformaldehyde (Solarbio & Technology Co., Ltd., Beijing, China). After dehydration in a gradient of ethanol concentrations, tissues were paraffin embedded and cut into 5 μm thick sections. Slices were stained with hematoxylin and eosin (H&E) dyes, and sections were mounted in neutral deparaffinized xylene medium for microscopic examination using an Olympus BX53 fluorescence microscope (Olympus, Tokyo, Japan).

T2DM mice [2] = assay: T2DM mouse model: liver histology (H&E); format: in vivo, C57BL/6J mice; settings: DhHP-6 60 mg/kg or metformin 250 mg/kg oral, four weeks
Description: as §1

[3] = Description: As a peroxidase mimetic, the enzymatic potency of the digestion products of DhHP-6 were assessed using the H2O2–Vitamin C (Vc) double-substrate method. Digestion products of DhHP-6 were diluted to 10 μM. Samples containing no enzyme were used as a control. The reaction system consisted of phosphate buffer solution (PBS) (50 mM, pH 7.4), H2O2 (1 mM), Vc ([…]), and 10 μM DhHP-6. All samples were assayed at 25 °C. The decrease in the absorbance at 290 nm was measured for 30 s by UV–Vis spectrophotometer (Shimadzu, Kyoto, Japan), and measurements were performed prior to the addition of the digestion products and set as 100% relative enzymatic activity.
human plasma = settings: 37 °C, up to seven days
[4] = blood samples of rats after intravenous injection or intragastric administration; settings: male Wistar rats, up to 12 h
[5] = simulated gastric fluid (SGF), pH 1.2, prepared in accordance with the US Pharmacopeia; settings: 37 °C, up to 120 min
[6] = simulated intestinal fluid (SIF), pH 6.8 ± 0.1, prepared in accordance with the US Pharmacopeia; settings: 37 °C, up to 120 min

In the case of “deuterohemin-Ala-His-Lys [DhHP-3 (deuterohemin-Ala-His-Lys)]”, the “symptoms of T2DM rats” value (T2DM rats) is listed as “improves the symptoms of T2DM rats”.

For `CN(C)C(=N)N=C(N)N` [metformin, reference compound], the “pancreas islet histology, high dose / metformin” value (T2DM mice [1]) was “the islets and vacuolar degeneration improved” and the “liver histology, high dose / metformin” value (T2DM mice [2]) was “lower levels of steatosis were evident and the liver cells became more regular than T2DM mice”.

With Deuterohemin-βAla-His-Thr [DhHP-3] the “relative enzyme activity of the plasma degradation product” value [3] was “retained the relative enzyme activity of DhHP-6”.

For Deuterohemin-βAla-His-Thr-Val-Glu-Lys, the fragment found (human plasma) was “DhHP-3 (Deuterohemin-βAla-His-Thr), major”, the fragment found [4] was “DhHP-3, major” and the fragment found [5] was “DhHP-5 (Deuterohemin-βAla-His-Thr-Val-Glu), major”. For the same compound, the fragment found [6] was “DhHP-5; also recorded: DhHP-2 (Deuterohemin-βAla-His)”.
